Data reported in patent publication US20210122730A1, “GLUCOCORTICOID RECEPTOR MODULATORS” (ORIC Pharmaceuticals, Inc., priority 2017, published 2021).

What was measured:
CYP2C8 = molecular target: T1, CYP2C8 (Homo sapiens, UniProt P10632); experiment: CYP Inhibition Assay (CYP2C8, human liver microsomes, paclitaxel substrate); type: in vitro ADME; conditions: pH 7.4; pooled human liver microsomes 0.1 mg/mL, probe substrate paclitaxel
T1 construct: Pooled human microsomes were obtained from Sekisui XenoTech, KS; tissue Sekisui XenoTech, KS; host or cells: pooled human liver microsomes
T1 sequence (P10632 1-490): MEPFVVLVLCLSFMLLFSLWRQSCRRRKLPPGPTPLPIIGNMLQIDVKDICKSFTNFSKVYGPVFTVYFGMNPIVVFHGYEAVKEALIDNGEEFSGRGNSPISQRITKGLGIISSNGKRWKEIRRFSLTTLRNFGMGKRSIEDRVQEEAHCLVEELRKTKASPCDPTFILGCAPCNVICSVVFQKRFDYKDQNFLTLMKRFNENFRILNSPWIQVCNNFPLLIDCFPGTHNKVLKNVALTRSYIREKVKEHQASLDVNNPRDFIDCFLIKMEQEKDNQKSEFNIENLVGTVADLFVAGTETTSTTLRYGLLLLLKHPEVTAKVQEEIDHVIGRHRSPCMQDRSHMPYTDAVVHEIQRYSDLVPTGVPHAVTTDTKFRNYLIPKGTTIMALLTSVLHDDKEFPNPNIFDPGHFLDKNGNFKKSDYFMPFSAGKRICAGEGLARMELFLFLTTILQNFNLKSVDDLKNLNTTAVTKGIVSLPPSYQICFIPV
Method in brief: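 Pooled human liver microsomes (0.1 mg/mL) in 50 mM potassium phosphate pH 7.4 with compound, started with 1 mM NADPH, 5 min at 37° C, duplicate.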

PR = molecular target: T2, PR (Homo sapiens, UniProt P06401); experiment: In Vitro PR Luciferase Reporter Assay (antagonist mode, CHO-K1-PR-MMTV-Luc reporter cells); type: cell-based; conditions: antagonist assay with 20 nM Progesterone, 18-24 hours, read-out: PR antagonism IC50
T2 construct: expressed in transfected cells; host or cells: CHO-K1
T2 sequence (P06401 1-933): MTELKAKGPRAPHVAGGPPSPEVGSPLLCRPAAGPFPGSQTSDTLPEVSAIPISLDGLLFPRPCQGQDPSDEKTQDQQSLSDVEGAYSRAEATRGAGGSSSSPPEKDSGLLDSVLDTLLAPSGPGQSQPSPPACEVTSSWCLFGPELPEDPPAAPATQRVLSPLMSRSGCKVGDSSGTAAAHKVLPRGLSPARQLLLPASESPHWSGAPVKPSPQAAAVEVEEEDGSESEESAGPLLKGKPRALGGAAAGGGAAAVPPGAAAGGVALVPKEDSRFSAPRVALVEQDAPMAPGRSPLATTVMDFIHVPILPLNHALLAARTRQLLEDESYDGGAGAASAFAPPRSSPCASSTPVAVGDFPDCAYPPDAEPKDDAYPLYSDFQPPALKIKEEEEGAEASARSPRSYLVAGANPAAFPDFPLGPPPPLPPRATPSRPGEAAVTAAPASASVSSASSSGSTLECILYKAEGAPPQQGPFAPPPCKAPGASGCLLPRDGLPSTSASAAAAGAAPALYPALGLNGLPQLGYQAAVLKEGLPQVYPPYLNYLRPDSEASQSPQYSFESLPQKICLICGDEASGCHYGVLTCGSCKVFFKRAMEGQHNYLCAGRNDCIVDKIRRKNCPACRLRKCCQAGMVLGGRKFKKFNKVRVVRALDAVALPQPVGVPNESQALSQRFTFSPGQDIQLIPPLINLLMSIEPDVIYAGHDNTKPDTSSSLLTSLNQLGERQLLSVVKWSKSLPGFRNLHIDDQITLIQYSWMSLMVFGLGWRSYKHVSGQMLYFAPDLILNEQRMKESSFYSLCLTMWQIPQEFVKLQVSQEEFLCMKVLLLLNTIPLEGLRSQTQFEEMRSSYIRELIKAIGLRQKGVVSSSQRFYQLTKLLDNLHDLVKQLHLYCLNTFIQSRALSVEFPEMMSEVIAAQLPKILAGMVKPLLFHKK
Excerpt: Example C: In Vitro PR Luciferase Reporter Assay
Cell Line: CHO-KI-PR-MMTV-Luc reporter cells
Culture Media: DMEM (with phenol red)+1000FBS
Assay Media: DMEM (without phenol red)+1000CSS
Culture CHO-Kl-PR-MMTV-Luc reporter cells in 15 cm plates in Culture Media at conditions less than 90% confluence.
Prepared 200×DMSO 1:8 serial dilutions of control and test compounds in 96-well non-sterile V bottom plate in DMSO, 8 serial dilutions for each compound.
Prepared 5× Assay Media diluted compound serial dilutions in 96-well non-sterile V bottom plate: Add 97.5 μL/well of Assay Media into 96-well then add 2.5 μl of 200× concentration of compounds and mix well.
Added compounds: 5 μl of assay media diluted compounds were added to appropriate wells and followed a quick spin (1000 rpm, 10 sec) to bring media and cells to the bottom of plate. The plates were covered with SealMate film to avoid evaporation and placed in 37° C. incubator for approximately 18-24 hours.
Read plates: Equilibrated appropriate amount of Promega One-Glo luciferase reagent to room temperature. Removed the plates from incubator and added 25 μL of One-Glo luciferase reagent/well by multiple channel pipette and read the plates with Tecan F500 luminometer within 3 minutes.
The ability of exemplary compounds disclosed herein to inhibit PR activity was quantified and the respective IC50 value was determined. Table 4 provides the cellular IC50 values of exemplary compounds disclosed herein.

inhibition at 5 min (CYP2C8) [%] | IC50 (PR) [µM] | SMILES
≤ 25 | 3.6 | Cn1ccc(S(=O)(=O)N(C2CC(F)(F)C2)[C@H]2CCC3=Cc4c(cnn4-c4ccc(F)cc4)C[C@]3(C(=O)c3ncc(C(F)(F)F)s3)C2)n1 [Example 270, N-(3,3-difluorocyclobutyl)-N-((4aS,6S)-1-(4-fluorophenyl)-4a-(5-(trifluoromethyl)thiazole-2-carbonyl)-4,4a,5,6,7,8-hexahydro-1H-benzo[f]indazol-6-yl)-1-methyl-1H-pyrazole-3-sulfonamide]
≤ 25 | > 5 | Cn1ccc(S(=O)(=O)N([C@H]2CCC3=Cc4c(cnn4-c4ccc(F)cc4)C[C@]3(C(=O)c3ncc(C(F)(F)F)s3)C2)[C@H]2C[C@@](C)(O)C2)n1 [Example 277, N-((4aS,6S)-1-(4-fluorophenyl)-4a-(5-(trifluoromethyl)thiazole-2-carbonyl)-4,4a,5,6,7,8-hexahydro-1H-benzo[f]indazol-6-yl)-N-((1s,3R)-3-hydroxy-3-methylcyclobutyl)-1-methyl-1H-pyrazole-3-sulfonamide]
25 to 50 | > 5 | Cn1cnc(S(=O)(=O)N(C2CC2)[C@H]2CCC3=Cc4c(cnn4-c4ccc(F)cc4)C[C@]3(C(=O)c3ncc(C(F)(F)F)s3)C2)n1 [Example 305, N-cyclopropyl-N-((4aS,6S)-1-(4-fluorophenyl)-4a-(5-(trifluoromethyl)thiazole-2-carbonyl)-4,4a,5,6,7,8-hexahydro-1H-benzo[f]indazol-6-yl)-1-methyl-1H-1,2,4-triazole-3-sulfonamide]
≤ 25 | > 5 | Cn1cnc(S(=O)(=O)N(C2CC2)[C@H]2CCC3=Cc4c(cnn4-c4ccc(F)cc4)C[C@]3(C(=O)c3cc(C(F)(F)F)ccn3)C2)n1 [Example 306, N-cyclopropyl-N-((4aS,6S)-1-(4-fluorophenyl)-4a-(4-(trifluoromethyl)picolinoyl)-4,4a,5,6,7,8-hexahydro-1H-benzo[f]indazol-6-yl)-1-methyl-1H-1,2,4-triazole-3-sulfonamide]
